Measured values as given in the supplement of paper PMC11208160.

Assay: recombinant UMI read abundance after kanamycin selection (control-corrected) (log10(CPM+1)); higher = more efficient recombination; extreme values may be limits of the assay; sequences stand for … in AGTGCAGAGAAAATCGGCCAGTTTTCTCTGCCTGCAGTCCGCATGCCGTGGGACCCCTTGGGTTCTAACCTGTTGCCTAGATTTATGCAGCGGACTGCCTTTCTCCCAAAGTGATAAACCGG…AGGTTGGTTTCACT; site = the 11-nt donor
Outline: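 Sequencing read counts were converted to CPM, averaged over two replicates and scaled by control-derived factors. Results are given as log10(CPM+1). The reads covered the donor–target junction of recombinant UMIs from a pooled Escherichia coli screen of donor and donor-binding-loop pairs for the IS621 bridge recombinase.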
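Further: IS621 bridge recombinase in Escherichia coli cells against a fixed T5 target plasmid.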

Sequence	recombinant UMI read abundance (log10)
CCCATATCATGGACCGGTTTTCCCGGTAATCCGTATTTGGC (site CCCATATCTGC)	0
CCCATATCATGGACCGGTTTTCCCGGTAATCCGTATTTGGC (site CCCATATCTGG)	0
CCCATATCATGGACCGGTTTTCCCGGTAATCCGTATTTGGC (site CCCATATCTGT)	0.0107
CCCATCTCATGGACCGGTTTTCCCGGTAATCCGTATTTGCT (site CCCATCTCTAG)	1.63
CCCATCTCATGGACCGGTTTTCCCGGTAATCCGTATTTGTC (site CCCATATCTGA)	0
CCCATCTCATGGACCGGTTTTCCCGGTAATCCGTATTTGTC (site CCCATCTCTGA)	1.35
CCCATCTCATGGACCGGTTTTCCCGGTAATCCGTATTTGTC (site CCCATGTCTGA)	0
CCCATCTCATGGACCGGTTTTCCCGGTAATCCGTATTTGTC (site CCCATTTCTGA)	0
CCCCAAGCATGGACCGGTTTTCCCGGTAATCCGTATTTGGC (site CCCCAAGCTGC)	0
CCCCACACATGGACCGGTTTTCCCGGTAATCCGTATTTGCA (site CCCCACACTTA)	0.0196
CCCCACACATGGACCGGTTTTCCCGGTAATCCGTATTTGCA (site CCCCACACTTC)	0.0185
CCCCACACATGGACCGGTTTTCCCGGTAATCCGTATTTGCA (site CCCCACACTTG)	1.88
CCCCACACATGGACCGGTTTTCCCGGTAATCCGTATTTGCA (site CCCCACACTTT)	0.16
CCCCACGCATGGACCGGTTTTCCCGGTAATCCGTATTTGGC (site CCCCACGCTGC)	0.767
CCCCACGCATGGACCGGTTTTCCCGGTAATCCGTATTTGTA (site CCCCACACTTA)	0.643
CCCCACGCATGGACCGGTTTTCCCGGTAATCCGTATTTGTA (site CCCCACCCTTA)	0.00405
CCCCACGCATGGACCGGTTTTCCCGGTAATCCGTATTTGTA (site CCCCACGCTTA)	0.81
CCCCACGCATGGACCGGTTTTCCCGGTAATCCGTATTTGTA (site CCCCACTCTTA)	0.923
CCCCAGCCATGGACCGGTTTTCCCGGTAATCCGTATTTGCC (site CCCAAGCCTGG)	0

Sequence	recombinant UMI read abundance (log10)
CCCCAGCCATGGACCGGTTTTCCCGGTAATCCGTATTTGCC (site CCCCAGCCTGG)	0
CCCCAGCCATGGACCGGTTTTCCCGGTAATCCGTATTTGCC (site CCCGAGCCTGG)	0
CCCCAGCCATGGACCGGTTTTCCCGGTAATCCGTATTTGCC (site CCCTAGCCTGG)	0
CCCCGTCCATGGACCGGTTTTCCCGGTAATCCGTATTTGAA (site CCCCGTCCTTT)	0.00894
CCCGAGACATGGACCGGTTTTCCCGGTAATCCGTATTTGTT (site CCCGAGACTAA)	0.475
CCCGAGCCATGGACCGGTTTTCCCGGTAATCCGTATTTGCC (site CCCAAGCCTGG)	0
CCCGAGCCATGGACCGGTTTTCCCGGTAATCCGTATTTGCC (site CCCCAGCCTGG)	0
CCCGAGCCATGGACCGGTTTTCCCGGTAATCCGTATTTGCC (site CCCGAGCCTGG)	0
CCCGAGCCATGGACCGGTTTTCCCGGTAATCCGTATTTGCC (site CCCTAGCCTGG)	0
CCCGGCCCATGGACCGGTTTTCCCGGTAATCCGTATTTGTT (site CACGGCCCTAA)	0.00644
CCCGGCCCATGGACCGGTTTTCCCGGTAATCCGTATTTGTT (site CCCGGCCCTAA)	0.1
CCCGGCCCATGGACCGGTTTTCCCGGTAATCCGTATTTGTT (site CGCGGCCCTAA)	0.00519
CCCGGCCCATGGACCGGTTTTCCCGGTAATCCGTATTTGTT (site CTCGGCCCTAA)	0
CCCGGGCCATGGACCGGTTTTCCCGGTAATCCGTATTTGCA (site CCCGGACCTTG)	0
CCCGGGCCATGGACCGGTTTTCCCGGTAATCCGTATTTGCA (site CCCGGCCCTTG)	0
CCCGGGCCATGGACCGGTTTTCCCGGTAATCCGTATTTGCA (site CCCGGGCCTTG)	0
CCCGGGCCATGGACCGGTTTTCCCGGTAATCCGTATTTGCA (site CCCGGTCCTTG)	0
CCCGGGGCATGGACCGGTTTTCCCGGTAATCCGTATTTGCA (site CCCGGGGCTTG)	1.23
CCCGGTCCATGGACCGGTTTTCCCGGTAATCCGTATTTGAA (site CCCGGTCCTTA)	0

Sequence	recombinant UMI read abundance (log10)
CCCGGTCCATGGACCGGTTTTCCCGGTAATCCGTATTTGAA (site CCCGGTCCTTC)	0.00874
CCCGGTCCATGGACCGGTTTTCCCGGTAATCCGTATTTGAA (site CCCGGTCCTTG)	0
CCCGGTCCATGGACCGGTTTTCCCGGTAATCCGTATTTGAA (site CCCGGTCCTTT)	0.00816
CCCGGTCCATGGACCGGTTTTCCCGGTAATCCGTATTTGCC (site CCCGGTCCTAG)	0
CCCGGTCCATGGACCGGTTTTCCCGGTAATCCGTATTTGCC (site CCCGGTCCTCG)	0.0293
CCCGGTCCATGGACCGGTTTTCCCGGTAATCCGTATTTGCC (site CCCGGTCCTGG)	0
CCCGGTCCATGGACCGGTTTTCCCGGTAATCCGTATTTGCC (site CCCGGTCCTTG)	0.00573
CCCGTTCCATGGACCGGTTTTCCCGGTAATCCGTATTTGCA (site CCCGATCCTTG)	0
CCCGTTCCATGGACCGGTTTTCCCGGTAATCCGTATTTGCA (site CCCGCTCCTTG)	0
CCCGTTCCATGGACCGGTTTTCCCGGTAATCCGTATTTGCA (site CCCGGTCCTTG)	0
CCCGTTCCATGGACCGGTTTTCCCGGTAATCCGTATTTGCA (site CCCGTTCCTTG)	0
CCCTAACCATGGACCGGTTTTCCCGGTAATCCGTATTTGAA (site CCCTAACCTTT)	0.0156
CCCTAACCATGGACCGGTTTTCCCGGTAATCCGTATTTGCC (site CCCTAACCTGG)	0
CCCTAACCATGGACCGGTTTTCCCGGTAATCCGTATTTGCC (site CCCTACCCTGG)	0
CCCTAACCATGGACCGGTTTTCCCGGTAATCCGTATTTGCC (site CCCTAGCCTGG)	0
CCCTAACCATGGACCGGTTTTCCCGGTAATCCGTATTTGCC (site CCCTATCCTGG)	0
CCCTACACATGGACCGGTTTTCCCGGTAATCCGTATTTGCT (site CACTACACTAG)	0
CCCTACACATGGACCGGTTTTCCCGGTAATCCGTATTTGCT (site CCCTACACTAG)	1.12
CCCTACACATGGACCGGTTTTCCCGGTAATCCGTATTTGCT (site CGCTACACTAG)	0.477
